Assay results reported in patent publication US8455475B2 (Gruenenthal GmbH, priority 2009, dated 2013).

Molecular target: T1, rat B1R (bradykinin receptor 1) (Rattus norvegicus, UniProt P97583)
T1 construct: expressed in transfected cells; host or cells: CHO K1 cells
T1 sequence (P97583 1-337): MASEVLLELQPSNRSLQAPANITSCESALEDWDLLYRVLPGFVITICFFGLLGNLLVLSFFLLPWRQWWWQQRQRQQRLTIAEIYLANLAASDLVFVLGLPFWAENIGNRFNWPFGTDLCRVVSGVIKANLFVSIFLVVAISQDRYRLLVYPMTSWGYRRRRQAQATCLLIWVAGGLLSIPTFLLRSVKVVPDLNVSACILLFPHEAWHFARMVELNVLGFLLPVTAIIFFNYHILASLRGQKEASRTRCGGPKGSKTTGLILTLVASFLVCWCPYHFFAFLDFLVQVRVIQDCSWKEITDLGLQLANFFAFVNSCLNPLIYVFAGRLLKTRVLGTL
Test: FLIPR Ca2+ assay (Fluo-4) on CHO K1 cells stably transfected with the B1R gene of the rat (rB1R cells): % inhibition at 10 μM / IC50, agonist Des-Arg9-bradykinin
Format: cell-based
Details: CHO-K1, rat B1R
Outline: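 Peak fluorescence counts read on FLIPR (λex 488, λem 540 nm) after two additions: compound first, then agonist at EC80 after 10–20 min. Human line challenged with Lys-Des-Arg9-bradykinin, rat line with Des-Arg9-bradykinin. Suppression of Ca2+ inflow expressed as % of maximum inhibition.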

Compound: COc1cccc(F)c1CN1CCC2(CC1)CCN(C(=O)c1ccc3c(c1)C(NC(=O)c1cc(C(F)(F)F)ccc1Cl)CC3)CC2 (centres unmarked) [IND_CC-649, 2-Chloro-N-[6-[9-[(2-fluoro-6-methoxy-phenyl)-methyl]-3,9-diazaspiro[5.5]-undecane-3-carbonyl]-2,3-dihydro-1H-inden-1-yl]-5-(trifluoromethyl)benzamide]
- inhibition at 10 µM: 76%

Compound: N#Cc1ccc(CN2CCC3(CC2)CCN(C(=O)c2ccc4c(c2)C(NC(=O)c2cc(Cl)ccc2F)CC4)C3)cc1 (centres unmarked) [IND_CC-650, 5-Chloro-N-[6-[8-[(4-cyano-phenyl)-methyl]-2,8-diazaspiro[4.5]decane-2-carbonyl]-2,3-dihydro-1H-inden-1-yl]-2-fluoro-benzamide]
- inhibition at 10 µM: 54%

Compound: N#Cc1cccc(CN2CCC3(CC2)CCN(C(=O)c2ccc4c(c2)C(NC(=O)c2cc(Cl)ccc2F)CC4)C3)c1 (centres unmarked) [IND_CC-651, 5-Chloro-N-[6-[8-[(3-cyano-phenyl)-methyl]-2,8-diazaspiro[4.5]decane-2-carbonyl]-2,3-dihydro-1H-inden-1-yl]-2-fluoro-benzamide]
- inhibition at 10 µM: 76%

Compound: O=C(NC1CCc2ccc(C(=O)N3CCC4(CCN(Cc5csnn5)CC4)CC3)cc21)c1cc(Cl)ccc1F (centres unmarked) [IND_CC-652, 5-Chloro-2-fluoro-N-[6-[9-([1,2,3]thiadiazol-4-yl-methyl)-3,9-diazaspiro[5.5]undecane-3-carbonyl]-2,3-dihydro-1H-inden-1-yl]-benzamide]
- inhibition at 10 µM: 53%

Compound: N#Cc1ccc(CN2CCC3(CC2)CCN(C(=O)c2ccc4c(c2)C(NC(=O)c2cc(Cl)ccc2F)CC4)CC3)cc1 (centres unmarked) [IND_CC-653, 5-Chloro-N-[6-[9-[(4-cyano-phenyl)-methyl]-3,9-diazaspiro[5.5]undecane-3-carbonyl]-2,3-dihydro-1H-inden-1-yl]-2-fluoro-benzamide]
- inhibition at 10 µM: 64%

Compound: N#Cc1cccc(CN2CCC3(CC2)CCN(C(=O)c2ccc4c(c2)C(NC(=O)c2cc(Cl)ccc2F)CC4)CC3)c1 (centres unmarked) [IND_CC-654, 5-Chloro-N-[6-[9-[(3-cyano-phenyl)-methyl]-3,9-diazaspiro[5.5]undecane-3-carbonyl]-2,3-dihydro-1H-inden-1-yl]-2-fluoro-benzamide]
- inhibition at 10 µM: 60%

Compound: Cc1nc[nH]c1CN1CCC2(CC1)CCN(C(=O)c1ccc3c(c1)C(NC(=O)c1cc(C(F)(F)F)ccc1Cl)CC3)C2 (centres unmarked) [IND_CC-655, 2-Chloro-N-[6-[8-[(5-methyl-3H-imidazol-4-yl)-methyl]-2,8-diazaspiro[4.5]-decane-2-carbonyl]-2,3-dihydro-1H-inden-1-yl]-5-(trifluoromethyl)-benzamide]
- inhibition at 10 µM: 59%

Compound: O=C(NC1CCc2ccc(C(=O)N3CCC4(CCN(Cc5csnn5)CC4)C3)cc21)c1cc(C(F)(F)F)ccc1Cl (centres unmarked) [IND_CC-656, 2-Chloro-N-[6-[8-([1,2,3]thiadiazol-4-yl-methyl)-2,8-diazaspiro[4.5]decane-2-carbonyl]-2,3-dihydro-1H-inden-1-yl]-5-(trifluoromethyl)-benzamide]
- inhibition at 10 µM: 51%

Compound: Cc1noc(C)c1CN1CCC2(CC1)CCN(C(=O)c1ccc3c(c1)C(NC(=O)c1cc(C(F)(F)F)ccc1Cl)CC3)C2 (centres unmarked) [IND_CC-657, 2-Chloro-N-[6-[8-[(3,5-dimethyl-isoxazol-4-yl)-methyl]-2,8-diazaspiro[4.5]-decane-2-carbonyl]-2,3-dihydro-1H-inden-1-yl]-5-(trifluoromethyl)-benzamide]
- inhibition at 10 µM: 66%

Compound: N#Cc1ccc(CN2CCC3(CC2)CCN(C(=O)c2ccc4c(c2)C(NC(=O)c2cc(C(F)(F)F)ccc2Cl)CC4)C3)cc1 (centres unmarked) [IND_CC-658, 2-Chloro-N-[6-[8-[(4-cyano-phenyl)-methyl]-2,8-diazaspiro[4.5]decane-2-carbonyl]-2,3-dihydro-1H-inden-1-yl]-5-(trifluoromethyl)-benzamide]
- inhibition at 10 µM: 51%

Compound: N#Cc1cccc(CN2CCC3(CC2)CCN(C(=O)c2ccc4c(c2)C(NC(=O)c2cc(C(F)(F)F)ccc2Cl)CC4)C3)c1 (centres unmarked) [IND_CC-659, 2-Chloro-N-[6-[8-[(3-cyano-phenyl)-methyl]-2,8-diazaspiro[4.5]decane-2-carbonyl]-2,3-dihydro-1H-inden-1-yl]-5-(trifluoromethyl)-benzamide]
- inhibition at 10 µM: 81%
